Laboratory results reported in US9115092B2, “Substituted quinazoline and pyrido-pyrimidine derivatives” (Asana Biosciences, LLC, priority 2010, dated 2015).
pIC50: −log10 of the molar value.

Key:
[1] = target: T1, PI3Kα (wild-type), P110/P85α (Homo sapiens, UniProt P42336); assay: PI3 Kinase TR-FRET assay, PI3Kα (wild-type); type: biochemical
T1 construct: made in house; host or cells: SF9 insect cells
Summary of the method: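 TR-FRET read-out of PIP3 formation via biotin-PIP3 displacement (665/615 nm ratio) gave IC50 curves. Enzyme: 5 ng wild-type P110/P85α from Sf9 cells, 60 min RT with compound and PIP2 (MgCl2 40 mM, DTT 5 mM), then 30 min RT kinase reaction at 10 μM ATP and 10 μM PIP2.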

mTOR kinase = target: T2, mTOR kinase (Homo sapiens, UniProt P42345); assay: mTOR kinase TR-FRET assay; type: biochemical; details: read-out: mTO R
T2 construct: purchased Millipore, USA
Summary of the method: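 TR-FRET read-out (340 nm excitation, 615/665 nm emission) of Thr389 phosphorylation of a ULight-labeled p70 S6K peptide (50 nM) by mTOR, 20 μM ATP, 60 min room temperature after 60 min compound preincubation. Buffer HEPES pH 7.5 with MnCl2, EGTA; IC50 by sigmoidal dose-response.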

[2] = tested on: pS6RP(S235/236), PC3 cells; assay: In-cell Western assay, pS6RP(S235/236) in PC3 cells; type: cell-based, human; details: Homo sapiens, PC-3, In-cell Western
Summary of the method: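 Overnight-seeded PC3 cells were treated 2 h with serially diluted compound, then fixed and immunostained with phospho-specific primary antibodies and Eu-labelled secondary. Time-resolved Eu signal read at 615 nm (ex 340 nm), normalised by Hoechst 33258 staining (ex 355/em 460 nm); IC50 from sigmoidal dose-response fit.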

PC3 cells = assay: XTT assay for cell viability, PC3 cells; type: cell-based, human; details: Homo sapiens, PC-3, cell viability
Summary of the method: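 PC3 cells seeded at 1000 cells/well, grown 24 h, then exposed to serial dilutions of compound for 96 h. Viability read by XTT dye at 37° C, absorbance 465 nm. EC50 from sigmoidal dose-response fit.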

T1 sequence (P42336 whole entry): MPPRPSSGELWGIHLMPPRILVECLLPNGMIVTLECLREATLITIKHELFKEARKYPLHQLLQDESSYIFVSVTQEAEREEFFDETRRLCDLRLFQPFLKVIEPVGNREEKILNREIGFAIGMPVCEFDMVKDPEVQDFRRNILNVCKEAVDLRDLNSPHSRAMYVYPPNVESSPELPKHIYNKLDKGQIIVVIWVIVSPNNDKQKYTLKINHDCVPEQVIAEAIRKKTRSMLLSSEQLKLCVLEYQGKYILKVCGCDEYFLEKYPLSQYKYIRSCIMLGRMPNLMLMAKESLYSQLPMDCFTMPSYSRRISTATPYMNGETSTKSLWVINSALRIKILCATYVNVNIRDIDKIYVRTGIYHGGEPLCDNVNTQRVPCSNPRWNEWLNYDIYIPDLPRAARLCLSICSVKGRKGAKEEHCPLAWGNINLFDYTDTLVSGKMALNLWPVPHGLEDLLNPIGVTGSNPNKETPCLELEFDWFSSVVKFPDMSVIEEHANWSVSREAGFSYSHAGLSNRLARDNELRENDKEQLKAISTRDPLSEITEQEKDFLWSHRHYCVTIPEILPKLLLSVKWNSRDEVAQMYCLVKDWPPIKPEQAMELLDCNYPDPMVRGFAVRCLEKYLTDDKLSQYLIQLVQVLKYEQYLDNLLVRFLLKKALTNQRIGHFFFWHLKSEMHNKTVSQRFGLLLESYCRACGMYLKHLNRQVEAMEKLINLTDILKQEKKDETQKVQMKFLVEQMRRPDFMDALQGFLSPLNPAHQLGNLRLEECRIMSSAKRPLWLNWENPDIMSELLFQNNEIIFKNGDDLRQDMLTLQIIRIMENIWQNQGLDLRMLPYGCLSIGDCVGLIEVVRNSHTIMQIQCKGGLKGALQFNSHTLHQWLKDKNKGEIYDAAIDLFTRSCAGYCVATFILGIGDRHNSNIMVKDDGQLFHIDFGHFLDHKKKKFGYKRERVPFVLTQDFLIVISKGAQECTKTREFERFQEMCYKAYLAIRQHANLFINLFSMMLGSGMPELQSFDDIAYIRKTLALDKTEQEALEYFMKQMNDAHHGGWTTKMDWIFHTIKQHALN
T1 sequence (P27986 whole entry partner): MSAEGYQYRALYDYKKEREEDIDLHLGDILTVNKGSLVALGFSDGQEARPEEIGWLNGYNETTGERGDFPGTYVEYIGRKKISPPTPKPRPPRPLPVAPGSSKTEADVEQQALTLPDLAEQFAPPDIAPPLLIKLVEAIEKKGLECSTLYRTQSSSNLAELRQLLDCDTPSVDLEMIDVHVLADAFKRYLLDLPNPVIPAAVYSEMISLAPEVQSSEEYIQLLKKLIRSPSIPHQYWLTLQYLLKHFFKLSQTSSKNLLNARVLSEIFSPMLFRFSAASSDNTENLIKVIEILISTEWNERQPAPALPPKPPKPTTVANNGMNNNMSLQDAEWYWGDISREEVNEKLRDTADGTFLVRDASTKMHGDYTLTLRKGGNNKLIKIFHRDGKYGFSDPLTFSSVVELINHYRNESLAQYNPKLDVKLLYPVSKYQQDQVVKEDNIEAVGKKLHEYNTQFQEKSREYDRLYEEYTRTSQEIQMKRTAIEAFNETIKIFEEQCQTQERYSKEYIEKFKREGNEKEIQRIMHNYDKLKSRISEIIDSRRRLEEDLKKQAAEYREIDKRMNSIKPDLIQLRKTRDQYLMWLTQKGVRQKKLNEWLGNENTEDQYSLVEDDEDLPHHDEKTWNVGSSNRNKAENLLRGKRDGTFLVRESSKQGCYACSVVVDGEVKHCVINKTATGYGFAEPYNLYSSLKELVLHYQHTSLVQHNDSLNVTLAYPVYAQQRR

SMILES | pIC50 [1] | pIC50 (mTOR kinase) | pIC50 [2] | pIC50 (PC3 cells)
CN(C)C(=O)c1ccc(NC(=O)Nc2ccc(-c3nc(N4CCOCC4)c4ccc(-c5ccncc5)cc4n3)cc2F)cc1 [Example 137, 4-(3-(2-fluoro-4-(4-morpholino-7-(pyridin-4-yl)quinazolin-2-yl)phenyl)ureido)-N,N-dimethyl-benzamide] | 6.70 to 7.30 | 6.70 to 7.30 | 5.00 to 6.70 | 5.00 to 6.70
COc1cc2nc(-c3ccc(NC(=O)Nc4ccc(C(=O)N(C)C)cc4)cc3)nc(N3CCOCC3)c2cc1OC [Example 181, 4-(3-(4-(6,7-dimethoxy-4-morpholino-quinazolin-2-yl)phenyl)ureido)-N,N-dimethyl-benzamide] | 6.70 to 7.30 | > 7.30 | 5.00 to 6.70 | 5.00 to 6.70
CN(C)[C@@H]1CCN(C(=O)c2ccc(NC(=O)Nc3ccc(-c4nc(N5CCOCC5)c5ncc(-c6cnn(C)c6)cc5n4)cc3)cc2)C1 [Example 184, (R)-1-(4-(3-(dimethylamino)pyrrolidine-1-carbonyl)phenyl)-3-(4-(7-(1-methyl-1H-pyrazol-4-yl)-4-morpholino-pyrido[3,2-d]pyrimidin-2-yl)phenyl)urea] | > 7.30 | > 7.30 | 5.00 to 6.70 | 5.00 to 6.70
CN(C)C1CCN(C(=O)c2ccc(NC(=O)Nc3ccc(-c4nc(N5CCOCC5)c5ncc(-c6cnn(C)c6)cc5n4)cc3)cc2)CC1 [Example 186, 1-(4-(4-(dimethylamino)piperidine-1-carbonyl)phenyl)-3-(4-(7-(1-methyl-1H-pyrazol-4-yl)-4-morpholino-pyrido[3,2-d]pyrimidin-2-yl)phenyl)urea] | > 7.30 | > 7.30 | 5.00 to 6.70 | 5.00 to 6.70
CN(C)[C@@H]1CCN(C(=O)c2ccc(NC(=O)Nc3ccc(-c4nc(N5CCOCC5)c5ccc(-c6cncnc6)cc5n4)cc3)cc2)C1 [Example 187, (R)-1-(4-(3-(dimethylamino)pyrrolidine-1-carbonyl)phenyl)-3-(4-(4-morpholino-7-(pyrimidin-5-yl)quinazolin-2-yl)phenyl)urea] | > 7.30 | > 7.30 | 5.00 to 6.70 | 5.00 to 6.70
O=C(Nc1ccc(C(=O)N2CCC(O)C2)cc1)Nc1ccc(-c2nc(N3CCOCC3)c3ccc(-c4cncnc4)cc3n2)cc1 (stereo not drawn) [Example 189, 1-(4-(3-hydroxypyrrolidine-1-carbonyl)phenyl)-3-(4-(4-morpholino-7-(pyrimidin-5-yl)quinazolin-2-yl)phenyl)urea] | 5.00 to 6.70 | > 7.30 | 5.00 to 6.70 | 5.00 to 6.70
Cc1ccncc1-c1ccc2c(N3CCOCC3)nc(-c3ccc(NC(=O)Nc4ccc(C(=O)N5CCC(N(C)C)CC5)cc4)cc3)nc2c1 [Example 193, 1-(4-(4-(dimethylamino)piperidine-1-carbonyl)phenyl)-3-(4-(7-(4-methylpyridin-3-yl)-4-morpholino-quinazolin-2-yl)phenyl)urea] | > 7.30 | > 7.30 | 5.00 to 6.70 | 5.00 to 6.70
N[C@H]1CCN(C(=O)c2ccc(NC(=O)Nc3ccc(-c4nc(N5CCOCC5)c5ccc(-c6cncnc6)cc5n4)cc3)cc2)C1 [Example 194, (S)-1-(4-(3-aminopyrrolidine-1-carbonyl)phenyl)-3-(4-(4-morpholino-7-(pyrimidin-5-yl)quinazolin-2-yl)phenyl)urea] | > 7.30 | > 7.30 | 5.00 to 6.70 | 5.00 to 6.70
N[C@@H]1CCN(C(=O)c2ccc(NC(=O)Nc3ccc(-c4nc(N5CCOCC5)c5ccc(-c6cncnc6)cc5n4)cc3)cc2)C1 [Example 197, (R)-1-(4-(3-aminopyrrolidine-1-carbonyl)phenyl)-3-(4-(4-morpholino-7-(pyrimidin-5-yl)quinazolin-2-yl)phenyl)urea] | > 7.30 | > 7.30 | 5.00 to 6.70 | 5.00 to 6.70
Cn1cc(-c2cnc3c(N4CCOCC4)nc(-c4ccc(NC(=O)Nc5ccc(C(N)=O)cc5)cc4)nc3c2)cn1 [Example 202, 4-(3-(4-(7-(1-methyl-1H-pyrazol-4-yl)-4-morpholino-pyrido[3,2-d]pyrimidin-2-yl)phenyl)ureido)-benzamide] | > 7.30 | > 7.30 | 5.00 to 6.70 | 5.00 to 6.70
CN(C)[C@@H]1CCN(C(=O)c2ccc(NC(=O)Nc3ccc(-c4nc(N5CCOCC5)c5ncc(-c6cnn(C)c6)cc5n4)cc3F)cc2)C1 [Example 205, (R)-1-(4-(3-(dimethylamino)pyrrolidine-1-carbonyl)phenyl)-3-(2-fluoro-4-(7-(1-methyl-1H-pyrazol-4-yl)-4-morpholino-pyrido[3,2-d]pyrimidin-2-yl)phenyl)urea] | > 7.30 | > 7.30 | 5.00 to 6.70 | 5.00 to 6.70

The remaining lines, values ahead:

pIC50 [1] | pIC50 (mTOR kinase) | pIC50 [2] | pIC50 (PC3 cells) | SMILES
6.70 to 7.30 | > 7.30 | 5.00 to 6.70 | 5.00 to 6.70 | CN(C)C(=O)c1ccc(NC(=O)Nc2ccc(-c3nc(N4CCOCC4)c4ccccc4n3)cc2)cc1 [Example 179, N,N-dimethyl-4-(3-(4-(4-morpholino-quinazolin-2-yl)phenyl)ureido)-benzamide]
> 7.30 | > 7.30 | 5.00 to 6.70 | 5.00 to 6.70 | COc1ccc2c(N3CCOCC3)nc(-c3ccc(NC(=O)Nc4ccc(C(=O)N(C)C)cc4)cc3)nc2c1 [Example 180, 4-(3-(4-(7-methoxy-4-morpholino-quinazolin-2-yl)phenyl)ureido)-N,N-dimethyl-benzamide]
6.70 to 7.30 | > 7.30 | 5.00 to 6.70 | 5.00 to 6.70 | CN(C)Cc1ccc(-c2ccc3c(N4CCOCC4)nc(-c4ccc(NC(=O)Nc5ccc(C(=O)N(C)C)cc5)cc4)nc3c2)o1 [Example 190, 4-(3-(4-(7-(5-((dimethylamino)methyl)furan-2-yl)-4-morpholino-quinazolin-2-yl)phenyl)ureido)-N,N-dimethyl-benzamide]
5.00 to 6.70 | 6.70 to 7.30 | 5.00 to 6.70 | 5.00 to 6.70 | Cc1ccc(-c2ccc3c(N4CCOCC4)nc(-c4ccc(NC(=O)Nc5ccc(C(=O)N6CCC(N(C)C)CC6)cc5)cc4)nc3c2)o1 [Example 191, 1-(4-(4-(dimethylamino)piperidine-1-carbonyl)phenyl)-3-(4-(7-(5-methylfuran-2-yl)-4-morpholino-quinazolin-2-yl)phenyl)urea]
6.70 to 7.30 | > 7.30 | 5.30 to 6.30 | 5.30 to 6.30 | Cc1ccc(-c2ccc3c(N4CCOCC4)nc(-c4ccc(NC(=O)Nc5ccc(C(=O)NCCN(C)C)cc5)cc4)nc3c2)o1 [Example 201, N-(2-(dimethylamino)ethyl)-4-(3-(4-(7-(5-methylfuran-2-yl)-4-morpholino-quinazolin-2-yl)phenyl)ureido)-benzamide]
> 7.30 | > 7.30 | 5.00 to 6.70 | 5.00 to 6.70 | CN(C)C(=O)c1ccc(NC(=O)Nc2ccc(-c3nc(N4CCOCC4)c4ccc(-c5ccc(CO)o5)cc4n3)cc2F)cc1 [Example 203, 4-(3-(2-fluoro-4-(7-(5-(hydroxymethyl)furan-2-yl)-4-morpholino-quinazolin-2-yl)phenyl)ureido)-N,N-dimethyl-benzamide]
> 7.30 | > 7.30 | > 7.00 | > 7.00 | Cc1ccc(-c2ccc3c(N4CCOCC4)nc(-c4ccc(NC(=O)Nc5ccc(C(=O)N6CCC(O)C6)cc5)cc4)nc3c2)o1 (stereo not drawn) [Example 204, 1-(4-(3-hydroxypyrrolidine-1-carbonyl)phenyl)-3-(4-(7-(5-methylfuran-2-yl)-4-morpholino-quinazolin-2-yl)phenyl)urea]
